Experiments:
Experiment in all cases: biochemical
Settings in all cases: read-out: Upstate KSS % inhibition at 1uM
[1] = molecular target: AXL (Homo sapiens, UniProt P30530)
Protocol: (§1) In these selectivity assays the concentration of ATP was set to the Km value of ATP for each kinase tested to allow for a relative potency comparison between the various kinases. The compounds were tested at 1 µM final concentration. […] (A) Kinase selectivity screen (KSS) performed at Upstate Biotechnology. […] (B) KSS performed at University of Dundee (Division of Signal Transduction Therapy). […] (PDF) Click here for additional data file.

[2] = molecular target: BLK (Homo sapiens, UniProt P51451)
Protocol: as §1

[3] = molecular target: CDK7/cyclinH (Homo sapiens, UniProt P50613)
Protocol: as §1

[4] = molecular target: T1, CHK2 (Homo sapiens, UniProt O96017)
T1 construct: gene CHEK2
Protocol: as §1

[5] = molecular target: CSK (Homo sapiens, UniProt P41240)
Protocol: as §1

[6] = molecular target: EPHB2 (Homo sapiens, UniProt P29323)
Protocol: as §1

[7] = molecular target: EPHB4 (Homo sapiens, UniProt P54760)
Protocol: as §1

[8] = molecular target: T2, FAK (Homo sapiens, UniProt Q05397)
T2 construct: gene PTK2
Protocol: as §1

[9] = molecular target: FGR (Homo sapiens, UniProt P09769)
Protocol: as §1

[10] = molecular target: Fes (Homo sapiens, UniProt P07332)
Protocol: as §1

[11] = molecular target: T3, GSK3alpha (Homo sapiens, UniProt P49840)
T3 construct: gene GSK3A
Protocol: as §1

[12] = molecular target: T4, IKKalpha (Homo sapiens, UniProt O15111)
T4 construct: gene CHUK
Protocol: as §1

[13] = molecular target: T5, JNK1alpha1 (Homo sapiens, UniProt P45983)
T5 construct: gene MAPK8; isoform alpha1
Protocol: as §1

[14] = molecular target: T6, LKB1 (Homo sapiens, UniProt Q15831)
T6 construct: gene STK11
Protocol: as §1

[15] = molecular target: T7, MKK7beta (Homo sapiens, UniProt O14733)
T7 construct: gene MAP2K7; isoform beta
Protocol: as §1

[16] = molecular target: T8, MRCKalpha (Homo sapiens, UniProt Q5VT25)
T8 construct: gene CDC42BPA
Protocol: as §1

[17] = molecular target: T9, MSK1 (Homo sapiens, UniProt O75582)
T9 construct: gene RPS6KA5
Protocol: as §1

[18] = molecular target: NEK6 (Homo sapiens, UniProt Q9HC98)
Protocol: as §1

[19] = molecular target: PAK4 (Homo sapiens, UniProt O96013)
Protocol: as §1

[20] = molecular target: T10, PI3Kg (Homo sapiens, UniProt P48736)
T10 construct: gene PIK3CG
Protocol: as §1

[21] = molecular target: T11, PKCgamma (Homo sapiens, UniProt P05129)
T11 construct: gene PRKCG
Protocol: as §1

[22] = molecular target: T12, PKCiota (Homo sapiens, UniProt P41743)
T12 construct: gene PRKCI
Protocol: as §1

[23] = molecular target: PLK3 (Homo sapiens, UniProt Q9H4B4)
Protocol: as §1

[24] = molecular target: T13, PRAK (Homo sapiens, UniProt Q8IW41)
T13 construct: gene MAPKAPK5
Protocol: as §1

[25] = molecular target: T14, PRK2 (Homo sapiens, UniProt Q16513)
T14 construct: gene PKN2
Protocol: as §1

[26] = molecular target: T15, PhKgamma (Homo sapiens, UniProt Q16816)
T15 construct: gene PHKG1
Protocol: as §1

[27] = molecular target: RET (Homo sapiens, UniProt P07949)
Protocol: as §1

[28] = molecular target: T16, Rsk1 (Homo sapiens, UniProt Q15418)
T16 construct: gene RPS6KA1
Protocol: as §1

[29] = molecular target: T17, Rsk3 (Homo sapiens, UniProt Q15349)
T17 construct: gene RPS6KA2
Protocol: as §1

[30] = molecular target: T18, SAPK3 (Homo sapiens, UniProt P53778)
T18 construct: gene MAPK12
Protocol: as §1

[31] = molecular target: T19, SAPK4 (Homo sapiens, UniProt O15264)
T19 construct: gene MAPK13
Protocol: as §1

[32] = molecular target: T20, TAK1 (Homo sapiens, UniProt O43318)
T20 construct: gene MAP3K7
Protocol: as §1

[33] = molecular target: T21, ZIPK (Homo sapiens, UniProt O43293)
T21 construct: gene DAPK3
Protocol: as §1

[34] = molecular target: T22, mouse MKK4 (Mus musculus, UniProt P47809)
T22 construct: gene Map2k4
Protocol: as §1

T9 sequence (O75582 whole entry): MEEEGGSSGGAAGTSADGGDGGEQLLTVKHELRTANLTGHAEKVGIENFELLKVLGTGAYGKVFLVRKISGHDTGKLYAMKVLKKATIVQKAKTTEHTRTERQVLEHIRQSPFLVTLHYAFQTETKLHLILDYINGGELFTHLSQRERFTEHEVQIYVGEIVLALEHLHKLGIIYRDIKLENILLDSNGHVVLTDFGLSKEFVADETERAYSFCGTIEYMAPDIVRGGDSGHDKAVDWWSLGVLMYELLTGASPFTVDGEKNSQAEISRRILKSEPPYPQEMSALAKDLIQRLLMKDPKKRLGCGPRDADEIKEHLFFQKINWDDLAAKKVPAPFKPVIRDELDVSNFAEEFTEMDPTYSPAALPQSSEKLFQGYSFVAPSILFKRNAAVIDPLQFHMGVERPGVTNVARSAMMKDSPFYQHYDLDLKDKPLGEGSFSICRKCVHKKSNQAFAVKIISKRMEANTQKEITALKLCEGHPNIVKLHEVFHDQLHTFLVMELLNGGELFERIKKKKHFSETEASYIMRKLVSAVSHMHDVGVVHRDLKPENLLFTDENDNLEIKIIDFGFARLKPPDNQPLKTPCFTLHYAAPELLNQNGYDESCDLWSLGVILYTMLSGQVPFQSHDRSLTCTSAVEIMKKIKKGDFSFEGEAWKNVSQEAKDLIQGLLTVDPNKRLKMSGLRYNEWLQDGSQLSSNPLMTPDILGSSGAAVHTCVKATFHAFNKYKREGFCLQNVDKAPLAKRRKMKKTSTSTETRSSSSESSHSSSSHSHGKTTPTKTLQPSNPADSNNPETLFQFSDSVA
RET, sequence (P07949 whole entry): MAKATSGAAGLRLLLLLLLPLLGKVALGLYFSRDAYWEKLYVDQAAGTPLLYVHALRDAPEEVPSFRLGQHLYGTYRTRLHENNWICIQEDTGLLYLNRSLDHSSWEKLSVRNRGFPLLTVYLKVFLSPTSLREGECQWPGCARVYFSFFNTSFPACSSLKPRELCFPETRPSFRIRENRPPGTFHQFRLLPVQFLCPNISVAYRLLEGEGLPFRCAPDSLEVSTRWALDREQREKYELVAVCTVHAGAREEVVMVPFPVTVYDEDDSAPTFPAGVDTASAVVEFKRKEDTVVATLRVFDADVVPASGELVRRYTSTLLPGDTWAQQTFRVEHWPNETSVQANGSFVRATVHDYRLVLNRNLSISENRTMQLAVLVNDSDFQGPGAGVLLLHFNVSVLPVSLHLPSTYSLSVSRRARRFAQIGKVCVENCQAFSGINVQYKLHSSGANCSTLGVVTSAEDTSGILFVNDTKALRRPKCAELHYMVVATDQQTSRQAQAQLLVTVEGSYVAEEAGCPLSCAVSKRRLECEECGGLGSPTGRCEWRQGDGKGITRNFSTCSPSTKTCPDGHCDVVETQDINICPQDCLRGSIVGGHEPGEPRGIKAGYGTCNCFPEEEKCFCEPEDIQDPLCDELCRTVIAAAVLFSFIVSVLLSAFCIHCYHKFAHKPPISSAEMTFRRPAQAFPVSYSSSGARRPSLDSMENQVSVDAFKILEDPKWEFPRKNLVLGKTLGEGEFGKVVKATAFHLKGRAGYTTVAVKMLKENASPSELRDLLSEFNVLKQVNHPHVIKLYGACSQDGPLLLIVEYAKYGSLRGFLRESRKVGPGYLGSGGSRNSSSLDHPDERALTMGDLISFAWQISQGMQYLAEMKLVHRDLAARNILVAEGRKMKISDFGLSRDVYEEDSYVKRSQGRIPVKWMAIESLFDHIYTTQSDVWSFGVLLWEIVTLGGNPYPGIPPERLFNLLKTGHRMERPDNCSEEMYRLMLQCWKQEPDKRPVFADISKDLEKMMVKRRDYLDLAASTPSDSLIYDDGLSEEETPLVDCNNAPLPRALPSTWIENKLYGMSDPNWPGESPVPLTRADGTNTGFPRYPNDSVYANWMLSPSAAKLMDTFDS
T13 sequence (Q8IW41 whole entry): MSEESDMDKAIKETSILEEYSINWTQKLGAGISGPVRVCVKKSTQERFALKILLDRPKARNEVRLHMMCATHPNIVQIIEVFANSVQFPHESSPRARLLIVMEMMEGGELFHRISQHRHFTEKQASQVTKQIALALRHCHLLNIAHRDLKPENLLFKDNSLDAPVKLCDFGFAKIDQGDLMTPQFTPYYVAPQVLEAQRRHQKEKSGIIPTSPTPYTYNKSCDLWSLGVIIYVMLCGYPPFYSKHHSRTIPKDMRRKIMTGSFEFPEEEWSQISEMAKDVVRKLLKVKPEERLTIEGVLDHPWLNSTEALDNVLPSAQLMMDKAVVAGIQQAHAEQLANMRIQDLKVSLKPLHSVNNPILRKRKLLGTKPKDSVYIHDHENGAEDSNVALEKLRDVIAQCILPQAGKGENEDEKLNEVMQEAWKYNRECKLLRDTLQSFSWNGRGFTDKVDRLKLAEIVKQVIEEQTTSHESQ
T16 sequence (Q15418 whole entry): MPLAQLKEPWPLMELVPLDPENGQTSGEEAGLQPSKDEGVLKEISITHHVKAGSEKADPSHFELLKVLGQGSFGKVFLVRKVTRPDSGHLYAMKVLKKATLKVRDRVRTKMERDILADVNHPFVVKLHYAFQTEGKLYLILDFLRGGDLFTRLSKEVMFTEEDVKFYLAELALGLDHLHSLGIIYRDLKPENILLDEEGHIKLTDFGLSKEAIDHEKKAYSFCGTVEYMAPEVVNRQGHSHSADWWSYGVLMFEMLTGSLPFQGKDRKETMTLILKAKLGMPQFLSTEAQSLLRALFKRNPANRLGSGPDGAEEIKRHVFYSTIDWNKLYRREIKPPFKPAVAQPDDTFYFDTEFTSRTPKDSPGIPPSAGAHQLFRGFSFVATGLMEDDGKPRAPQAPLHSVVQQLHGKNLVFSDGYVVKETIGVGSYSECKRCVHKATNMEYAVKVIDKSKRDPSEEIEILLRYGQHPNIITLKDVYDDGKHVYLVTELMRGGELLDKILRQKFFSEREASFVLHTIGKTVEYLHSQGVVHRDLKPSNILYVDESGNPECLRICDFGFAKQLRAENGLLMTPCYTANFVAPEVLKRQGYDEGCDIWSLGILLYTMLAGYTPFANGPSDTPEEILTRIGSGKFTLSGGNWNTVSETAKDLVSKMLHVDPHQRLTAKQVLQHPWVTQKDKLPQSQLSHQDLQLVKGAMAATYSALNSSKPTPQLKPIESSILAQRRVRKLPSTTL
T4 sequence (O15111 whole entry): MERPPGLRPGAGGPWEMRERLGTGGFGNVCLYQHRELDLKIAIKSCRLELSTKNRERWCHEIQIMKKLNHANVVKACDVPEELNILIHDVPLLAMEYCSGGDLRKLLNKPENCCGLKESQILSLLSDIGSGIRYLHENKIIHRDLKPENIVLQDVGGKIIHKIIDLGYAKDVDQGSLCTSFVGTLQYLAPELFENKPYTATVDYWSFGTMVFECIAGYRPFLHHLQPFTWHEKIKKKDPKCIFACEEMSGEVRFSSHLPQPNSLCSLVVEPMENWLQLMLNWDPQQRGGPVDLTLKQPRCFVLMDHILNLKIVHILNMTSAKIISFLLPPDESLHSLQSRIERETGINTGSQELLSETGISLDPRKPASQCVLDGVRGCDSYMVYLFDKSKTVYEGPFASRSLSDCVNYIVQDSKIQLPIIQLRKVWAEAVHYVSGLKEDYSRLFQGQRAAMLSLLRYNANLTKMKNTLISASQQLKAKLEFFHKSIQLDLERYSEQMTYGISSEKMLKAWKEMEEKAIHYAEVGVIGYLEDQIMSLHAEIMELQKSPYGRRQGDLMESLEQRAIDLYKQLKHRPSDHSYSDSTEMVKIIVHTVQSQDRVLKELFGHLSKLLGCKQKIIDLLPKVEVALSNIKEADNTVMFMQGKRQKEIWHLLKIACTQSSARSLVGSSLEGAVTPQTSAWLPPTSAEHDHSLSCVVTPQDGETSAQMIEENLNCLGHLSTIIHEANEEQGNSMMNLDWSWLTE
T6 sequence (Q15831 whole entry): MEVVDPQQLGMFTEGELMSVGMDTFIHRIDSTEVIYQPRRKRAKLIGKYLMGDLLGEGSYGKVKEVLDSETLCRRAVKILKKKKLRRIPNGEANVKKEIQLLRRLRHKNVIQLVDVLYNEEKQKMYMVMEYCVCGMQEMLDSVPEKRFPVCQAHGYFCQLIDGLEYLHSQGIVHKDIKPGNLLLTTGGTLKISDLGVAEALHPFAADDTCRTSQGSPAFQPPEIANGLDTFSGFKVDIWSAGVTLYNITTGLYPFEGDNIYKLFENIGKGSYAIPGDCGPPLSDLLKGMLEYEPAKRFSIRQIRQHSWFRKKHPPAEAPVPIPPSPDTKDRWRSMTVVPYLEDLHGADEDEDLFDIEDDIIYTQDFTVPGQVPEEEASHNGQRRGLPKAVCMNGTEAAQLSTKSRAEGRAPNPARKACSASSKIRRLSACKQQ
T22 sequence (P47809 whole entry): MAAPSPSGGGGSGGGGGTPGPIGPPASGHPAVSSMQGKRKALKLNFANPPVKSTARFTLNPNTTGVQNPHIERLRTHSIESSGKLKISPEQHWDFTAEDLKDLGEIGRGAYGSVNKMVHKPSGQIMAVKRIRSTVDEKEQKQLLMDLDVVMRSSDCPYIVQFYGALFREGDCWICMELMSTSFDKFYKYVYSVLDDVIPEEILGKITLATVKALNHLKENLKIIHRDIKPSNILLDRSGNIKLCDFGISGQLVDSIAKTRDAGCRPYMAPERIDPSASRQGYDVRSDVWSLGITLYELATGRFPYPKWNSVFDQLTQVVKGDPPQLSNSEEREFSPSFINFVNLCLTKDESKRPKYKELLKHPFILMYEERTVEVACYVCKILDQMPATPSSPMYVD
NEK6, sequence (Q9HC98 whole entry): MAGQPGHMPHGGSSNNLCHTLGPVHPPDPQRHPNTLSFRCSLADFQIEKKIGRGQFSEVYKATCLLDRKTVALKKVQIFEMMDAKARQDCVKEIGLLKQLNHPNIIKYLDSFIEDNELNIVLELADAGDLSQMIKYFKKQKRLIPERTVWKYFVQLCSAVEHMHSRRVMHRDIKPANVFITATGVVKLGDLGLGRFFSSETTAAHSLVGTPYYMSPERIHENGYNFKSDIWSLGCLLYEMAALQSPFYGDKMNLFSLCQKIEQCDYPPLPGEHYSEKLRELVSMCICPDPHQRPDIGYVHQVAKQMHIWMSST

- inhibition at 1 µM [1]: -11%
- inhibition at 1 µM [2]: 5%
- inhibition at 1 µM [3]: -14%
- inhibition at 1 µM [4]: 0%
- inhibition at 1 µM [5]: -23%
- inhibition at 1 µM [6]: 53%
- inhibition at 1 µM [7]: -23%
- inhibition at 1 µM [8]: -9%
- inhibition at 1 µM [9]: 0%
- inhibition at 1 µM [10]: -61%
- inhibition at 1 µM [11]: -7%
- inhibition at 1 µM [12]: -2%
- inhibition at 1 µM [13]: 0%
- inhibition at 1 µM [14]: -10%
- inhibition at 1 µM [15]: -2%
- inhibition at 1 µM [16]: 5%
- inhibition at 1 µM [17]: -5%
- inhibition at 1 µM [18]: -14%
- inhibition at 1 µM [19]: 1%
- inhibition at 1 µM [20]: 1%
- inhibition at 1 µM [21]: 5%
- inhibition at 1 µM [22]: 0%
- inhibition at 1 µM [23]: -7%
- inhibition at 1 µM [24]: -2%
- inhibition at 1 µM [25]: -11%
- inhibition at 1 µM [26]: -3%
- inhibition at 1 µM [27]: -7%
- inhibition at 1 µM [28]: -11%
- inhibition at 1 µM [29]: -3%
- inhibition at 1 µM [30]: 10%
- inhibition at 1 µM [31]: -18%
- inhibition at 1 µM [32]: -7%
- inhibition at 1 µM [33]: 0%
- inhibition at 1 µM [34]: -2%
Compound: OCCn1cc(-c2cnc3nnn(Cc4ccc5ncccc5c4)c3n2)cn1 [METi, PF-04217903]

— article PMC3382171 (PLoS ONE, 2012)
